Tested on: CD8+ T cells
Assay: IFN-gamma ELISpot analysis of T cells stimulated with neopeptide-loaded autologous CD40-activated B cells
Assay type: cell-based, human
Conditions: T cells from HLA-A0201-positive healthy proband, weekly stimulation

Row | Sequence | reactivity (IFN-gamma ELISpot) (day 35) | reactivity (IFN-gamma ELISpot) (day 28)
1 | FLSASHFLL [peptide #15, HLA-A0201-restricted neopeptide encoded by mutated cMNR] | 1123 specific cells/1,000,000 cells | –
2 | SLYKFSPFPL [peptide #16, HLA-A0201-restricted neopeptide encoded by mutated cMNR] | – | 1760 specific cells/1,000,000 cells
3 | TLSPGWSAV [peptide #21, HLA-A0201-restricted neopeptide encoded by mutated cMNR] | 733 specific cells/1,000,000 cells | –
